EP4534577A1, “NON-TOXIC LATENT POLYMERIZATION CATALYSTS FOR POLYURETHANES BASED ON TIN (IV) CHELATE COMPLEXES” (Tech Synt Ltd, priority 2023, dated 2025)

Legend:
[1] = Stability in ambient / moist air (visible change of powder on dry surface); assay type: physicochemical; conditions: for Air stability: powder poured onto a dry surface, left in ambient air
Text: (§1) The alkoxy-based tin complexes (DMAE)2Sn(OtBu)2 and (DMAEIDE)Sn(OtBu)2 were obtained using procedures similar to the synthesis of the phenoxy-complexes. These complexes are stable under dry conditions.
(§2) Of special stability are complexes based on tetradentate Salen and Salan type ligands such as: […]

[2] = Solubility of catalyst in organic solvents; assay type: physicochemical
[3] = Gelation time in polyurethane synthesis model reaction with tin catalyst; conditions: for Catalyst effect 65°C: gel time with no catalyst (2580 seconds) divided by gel time with 0.5 mol % of the catalyst; for Catalyst effect 90C: gel time with no catalyst (750 seconds) divided by gel time with 0.5 mol % of the catalyst; for Latency: latent if gelation did not occur at room temperature for two hours at a catalyst concentration of 1 mol%; for Gelation time In argon t, s (65ºC) / Gelation time On air t, s (65ºC): 65 °C; for Gelation time In argon t, s (90ºC) / Gelation time On air t, s (90ºC): 90 °C
Method: A method for using the above-mentioned tin(IV) complexes to produce polyurethane is described in the following. The method consists of adding a solution of the above-mentioned catalyst in an organic solvent (THF) to a two-component mixture at a given temperature. The method is explained by examples of its implementation: Specifically, to a vigorously stirred solution of 4.5 ml (5.1 g, 8.4 mmol) polyethyleneglycol-600 1.35 ml (1.40 g, 8.3 mmol), hexamethylene diisocyanate was added (temperature control was performed by thermostating the reaction mixture at room temperature, 65°C, 90°C before adding the catalyst), and then the solution of the catalyst to be tested in 0.25 ml in THF was added as fast as possible. The flask with the reactants then was put into an oil bath at room temperature, 65°C or 90°C (depending on the experiment), and then time count was started. The end of reaction was defined as the stop of the magnetic stirrer. The time from start to stop is taken as the gelation time. Experiments conducted in air and in an inert gas atmosphere at different temperatures were compared.
The molar concentration of the catalyst is given with respect to the molar amount of the polyisocyanate. Table 1: Gelation time with selected tin catalysts.

[4] = Stability on dissolution in wet organic solvent; assay type: physicochemical; conditions: wet / moist organic solvent
Text: as §1, §2

CC(C)(C)[O][Sn]1([O]C(C)(C)C)[O]c2c(cc(C(C)(C)C)cc2C(C)(C)C)CN2CCN(CC2)Cc2cc(C(C)(C)C)cc(C(C)(C)C)c2[O]1
Air stability [1]: excellent (Excellent stability was attributed to compounds for which no visible change was found within 24 hours)
Solubility Alkanes [2]: +- (less than 0.01 mol/L)
Solubility CH2Cl2/CHCl3 [2]: +++ (higher than 1.0 mol/L)
Solubility PhMe [2]: +++ (higher than 1.0 mol/L)
Solubility THF [2]: ++ (between 0.1 and 1.0)
Catalyst effect 65°C [3]: 5.7
Catalyst effect 90C [3]: 2.8
Latency [3]: yes

CN1Cc2cc(C(C)(C)C)cc(C(C)(C)C)c2[O][Sn]2([O]c3c(cc(C(C)(C)C)cc3C(C)(C)C)C1)[O]c1c(cc(C(C)(C)C)cc1C(C)(C)C)CN(C)Cc1cc(C(C)(C)C)cc(C(C)(C)C)c1[O]2
Air stability [1]: good (If there was no visible change within an hour, such as discoloration or melting into droplets due to hygroscopicity, then the stability of the compound was considered good)
Solubility Alkanes [2]: ++ (between 0.1 and 1.0)
Solubility CH2Cl2/CHCl3 [2]: +++ (higher than 1.0 mol/L)
Solubility PhMe [2]: +++ (higher than 1.0 mol/L)
Solubility THF [2]: +++ (higher than 1.0 mol/L)
Catalyst effect 65°C [3]: 2.4
Catalyst effect 90C [3]: 3.8
Latency [3]: yes

C1=NCC[O][Sn]2([O]CCN=Cc3ccccc3[O]2)[O]c2ccccc21 (stereo not drawn)
Air stability [1]: good (If there was no visible change within an hour, such as discoloration or melting into droplets due to hygroscopicity, then the stability of the compound was considered good)
Solubility Alkanes [2]: +- (less than 0.01 mol/L)
Solubility CH2Cl2/CHCl3 [2]: +- (less than 0.01 mol/L)
Solubility PhMe [2]: + (between 0.01 and 0.1 mol/L)
Solubility THF [2]: + (between 0.01 and 0.1 mol/L)
Catalyst effect 65°C [3]: 12.3
Catalyst effect 90C [3]: 6.3
Latency [3]: yes

CN(C)CC[O][Sn]([O]CCN(C)C)([O]C(C)(C)C)[O]C(C)(C)C [(DMAE)2Sn(OtBu)2, reference compound]
Decomposition on dissolution in wet organic solvent [4]: instantly leads to the decomposition
Hygroscopicity [1]: rather hygroscopic
Visible change of powder in moist air ([1]; powder poured on a dry surface in moist air): change their appearance within half an hour
gel time compared with no catalyst ([3]; 0.1 mol% concentration, under air): the same as for no catalyst
Gelation time In argon t, s (65ºC) ([3]; c 0.1 % mol.): 410 s
Gelation time In argon t, s (90ºC) ([3]; c 0.1 % mol.): 185 s
Gelation time On air t, s (65ºC) ([3]; c 0.1 % mol.): 2580 s
Gelation time On air t, s (90ºC) ([3]; c 0.1 % mol.): 750 s
Gelation time In argon t, s (65ºC) ([3]; c 1 % mol.): 230 s
Gelation time In argon t, s (90ºC) ([3]; c 1 % mol.): 150 s
Gelation time On air t, s (65ºC) ([3]; c 1 % mol.): 540 s
Gelation time On air t, s (90ºC) ([3]; c 1 % mol.): 280 s
